Among the test systems are SNB-75 CNS; NCI/ADR-RES ovarian; A549 NSCLC; HCC-2998 colon; DU-145 prostate; SNB-19 CNS; T-47D breast; RXF 393 renal; SF-295 CNS; HCT-116 colon; NCI-H226 lung; KM12 colon; HL-60(TB) leukemia; MDA-MB-231 breast; A498 renal; HOP-92 NSCLC; EKVX NSCLC; IGROV1 ovarian; K-562 leukemia; SF-268 CNS; OVCAR-5 ovarian; MDA-MB-468 breast; BT-549 breast; PC-3 prostate; SK-OV-3 ovarian; RPMI-8226 leukemia; MALME-3M melanoma; SK-MEL-2 melanoma; TK-10 renal; MOLT-4 leukemia; ACHN renal; SF-539 CNS; HOP-62 NSCLC; COLO 205 colon; SK-MEL-28 melanoma; MCF7 breast; MDA-MB-435; OVCAR-3 ovarian; UACC-62 melanoma; 786-0 renal; SW-620 colon; CCRF-CEM leukemia; U251 CNS; NCI-H23 lung; OVCAR-4 ovarian; OVCAR-8 ovarian; NCI-H522 lung; HCT-15 colon; UACC-257 melanoma; UO-31 renal; NCI-H460 lung; M14 melanoma; SR leukemia; SK-MEL-5 melanoma; LOX IMVI melanoma; HT29 colon; SN12C renal; CAKI-1 renal.

Common to all, as to test: DTP human tumour cell line panel, 48 h

Several values for one entry are separate records, joined by “and”; a condition that tells them apart may be missing. Identical values can stand only once.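 48-hour exposure; five concentrations; linearly interpolated endpoints. GI50: concentration for 50% inhibition of growth. TGI is the concentration that stops growth completely.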

Regarding `CC(C)N=C([Se])NC(=O)c1ccccc1`, the GI50 is 1690 nM in the assay on SNB-75 CNS; 2120 nM in the assay with NCI/ADR-RES ovarian; 3110 nM with A549 NSCLC; 1920 nM with HCC-2998 colon; 1950 nM with DU-145 prostate; 2910 nM with SNB-19 CNS. Moreover, the GI50 with T-47D breast was 1980 nM; in the assay with RXF 393 renal it was 1880 nM; with SF-295 CNS it was 1860 nM; in the assay on HCT-116 colon, 1880 nM; with NCI-H226 lung it was 2110 nM; in the assay with KM12 colon, 3000 nM. Moreover, the GI50 in the assay with HL-60(TB) leukemia was 2070 nM; in the assay with MDA-MB-231 breast it was 2670 nM; in the assay on A498 renal, 2850 nM; with HOP-92 NSCLC, 1950 nM; in the assay on EKVX NSCLC, 1770 nM; in the assay on IGROV1 ovarian it was 1760 nM. The GI50 with K-562 leukemia was 2760 nM; in the assay on SF-268 CNS, 2900 nM; in the assay with OVCAR-5 ovarian, 1970 nM; in the assay on MDA-MB-468 breast it was 1720 nM; in the assay with BT-549 breast, 1610 nM; in the assay on PC-3 prostate, 2010 nM. Moreover, the GI50 is 426 nM in the assay on SK-OV-3 ovarian; 2640 nM with RPMI-8226 leukemia; 1630 nM in the assay on MALME-3M melanoma; 2080 nM in the assay on SK-MEL-2 melanoma; 1700 nM in the assay on TK-10 renal; 2330 nM in the assay with MOLT-4 leukemia. Also, the GI50 with ACHN renal is 1920 nM; in the assay with SF-539 CNS it was 1800 nM; in the assay with HOP-62 NSCLC it was 2030 nM; with COLO 205 colon it was 2490 nM; in the assay on SK-MEL-28 melanoma, 1940 nM; in the assay with MCF7 breast it was 1700 nM. Besides, the GI50 with MDA-MB-435 was 2690 nM; with OVCAR-3 ovarian, 1970 nM; in the assay with UACC-62 melanoma, 1960 nM; in the assay on 786-0 renal, 1800 nM; in the assay with SW-620 colon it was 2060 nM; in the assay on CCRF-CEM leukemia, 3050 nM. Moreover, the GI50 is 1860 nM in the assay on U251 CNS; 1930 nM in the assay on NCI-H23 lung; 1750 nM with OVCAR-4 ovarian; 1880 nM with OVCAR-8 ovarian; 1640 nM in the assay on NCI-H522 lung; 1850 nM with HCT-15 colon. Also, the GI50 is 1920 nM in the assay on UACC-257 melanoma; 1640 nM in the assay on UO-31 renal; 2930 nM in the assay with NCI-H460 lung; 1840 nM with M14 melanoma; 2060 nM with SR leukemia; 1880 nM in the assay with SK-MEL-5 melanoma. Further, the GI50 is 1850 nM with LOX IMVI melanoma, 2340 nM in the assay with HT29 colon, 1820 nM in the assay with SN12C renal and 1670 nM in the assay with CAKI-1 renal. The concentration for total growth inhibition (TGI) in the assay with SNB-75 CNS turned out to be 3410 nM; in the assay on NCI/ADR-RES ovarian it was 4890 nM; in the assay with A549 NSCLC it was 34800 nM; with HCC-2998 colon, 3670 nM; with DU-145 prostate, 3600 nM; with SNB-19 CNS, 10800 nM. Besides, the concentration for total growth inhibition (TGI) was 4520 nM with T-47D breast; 3680 nM in the assay on RXF 393 renal; 5210 nM in the assay on SF-295 CNS; 3490 nM in the assay on HCT-116 colon; 5940 nM in the assay with NCI-H226 lung; 8390 nM in the assay with KM12 colon. Besides, the total growth inhibition concentration (TGI) is 5370 nM in the assay on HL-60(TB) leukemia; 6490 nM in the assay on MDA-MB-231 breast; 8020 nM with A498 renal; 4360 nM in the assay with HOP-92 NSCLC; 3320 nM with EKVX NSCLC; 3490 nM in the assay on IGROV1 ovarian. Besides, the TGI in the assay with K-562 leukemia came out at 8450 nM; with SF-268 CNS, 8270 nM; with OVCAR-5 ovarian, 3720 nM; in the assay with MDA-MB-468 breast, 3610 nM; in the assay with BT-549 breast it was 3550 nM; in the assay with PC-3 prostate, 4370 nM. The total growth inhibition concentration (TGI) turned out to be 1300 nM in the assay with SK-OV-3 ovarian; 7830 nM in the assay on RPMI-8226 leukemia; 3090 nM in the assay with MALME-3M melanoma; 4880 nM in the assay with SK-MEL-2 melanoma; 3170 nM with TK-10 renal; 6070 nM in the assay on MOLT-4 leukemia. The TGI with ACHN renal was found to be 3410 nM; in the assay with SF-539 CNS, 3210 nM; in the assay with HOP-62 NSCLC, 5190 nM; in the assay with COLO 205 colon, 6460 nM; in the assay on SK-MEL-28 melanoma it was 3620 nM; in the assay on MCF7 breast, 3660 nM. For the same compound, the TGI in the assay on MDA-MB-435 stood at 8500 nM; in the assay on OVCAR-3 ovarian, 3570 nM; in the assay with UACC-62 melanoma, 4070 nM; in the assay with 786-0 renal, 3250 nM; in the assay on SW-620 colon it was 4630 nM; with CCRF-CEM leukemia it was 10800 nM. The TGI in the assay with U251 CNS came to 3510 nM; in the assay with NCI-H23 lung it was 4130 nM; in the assay on OVCAR-4 ovarian, 3140 nM; with OVCAR-8 ovarian it was 3560 nM; in the assay on NCI-H522 lung, 3170 nM; with HCT-15 colon, 3630 nM. Moreover, the TGI in the assay with UACC-257 melanoma was 4060 nM; with UO-31 renal it was 3000 nM; with NCI-H460 lung, 11600 nM; with M14 melanoma it was 3650 nM; in the assay on SR leukemia, 5230 nM; in the assay with SK-MEL-5 melanoma, 3670 nM. In addition, the TGI was found to be 3940 nM in the assay on LOX IMVI melanoma, 5990 nM in the assay on HT29 colon, 3290 nM in the assay on SN12C renal and 3040 nM in the assay on CAKI-1 renal.

Turning to `CCCS(=O)(=O)Nc1ccc(F)c(C(=O)c2c[nH]c3ncc(-c4ccc(Cl)cc4)cc23)c1F`, in the assay with MDA-MB-468 breast, the GI50 was 3550 nM and 5650 nM; the TGI was 20100 nM and > 10000 nM.

Take `CC1(C)CCC[C@]23C(=O)O[C@](O)(C(=O)C4=C[C@@](C)(/C=C/CCCc5ccc6ccc7cccc8ccc5c6c78)CC[C@@]42O)[C@@H]13`: in the assay with MDA-MB-468 breast, the GI50 was 196 nM and the TGI came to 409 nM.

On to `COc1cc(C)c(C(=O)O[C@H]2[C@H](O[C@H]3[C@@H](O)COC(O[C@H]4C[C@H]5[C@@H]6CC=C7C[C@@H](O)CC[C@]7(C)[C@H]6CC[C@]5(C)[C@H]4[C@H](C)C(=O)CCC(C)C)[C@@H]3OC(C)=O)OC[C@@H](O)[C@@H]2O)c(C)c1` (some centres not stated), for which, in the assay with MDA-MB-468 breast, the GI50 was 17.1 nM and the TGI turned out to be 1840 nM.

`CC(=O)OCC1OC(OC2C(COC(C)=O)OC(OCCC[S-])C(OC(C)=O)C2OC(C)=O)C(OC(C)=O)C(OC(C)=O)C1OC(C)=O.[Au+].c1ccc(CN2[CH-]N(Cc3ccccc3)C(c3ccccc3)=C2c2ccccc2)cc1` (configuration not stated): in the assay on MDA-MB-468 breast, the GI50 was 2810 nM and the total growth inhibition concentration (TGI) was 12400 nM.

Consider `C[C@]12O[C@H](C[C@]1(O)CO)n1c3ccccc3c3c4c(c5c6ccccc6n2c5c31)CNC4=O`, for which, in the assay with MDA-MB-468 breast, the GI50 was 457 nM and 185 nM; the TGI is 2570 nM and 1650 nM.

Regarding `CN1/C(=C\C(I)C(I)C2=[N+](C)c3ccccc3C2(C)C)C(C)(C)c2ccccc21` (configuration not stated), in the assay with MDA-MB-468 breast, the concentration for 50% growth inhibition (GI50) is 72.3 nM and the TGI was 1240 nM.

For `O=C1c2ccccc2C(=O)c2c1ccc(C(Br)Br)c2[N+](=O)[O-]`, in the assay on MDA-MB-468 breast, the GI50 is 541 nM and the TGI came to 2280 nM.

For `CC(=O)Oc1ccc(OC(C)=O)c2ccccc12`, in the assay on MDA-MB-468 breast, the GI50 is 477 nM and the TGI was 2190 nM.

One may read the GI50 as the concentration that inhibits growth by half. For orientation: TGI means the concentration at which net growth stops.

Values taken from PubChem BioAssay (NCI).
